biological target: human plasma kallikrein (Homo sapiens, UniProt P03952); assay: Kallikrein inhibition FLINT assay with quenched AMC peptide substrate Z-Gly-Pro-Arg-AMC (end point EP or kinetic KIN reads); assay type: biochemical; settings: kinetic reads at 5 min intervals over 30 min; read-out: Kallikrein (KIN) IC50
How it was run: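 Enzyme and compound were preincubated 30 min before adding 50 μM AMC substrate in pH 7.5 Tris/NaCl/CaCl2/BSA/CHAPS buffer. AMC release was read at 30 min endpoint or every 5 min.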

human plasma kallikrein, sequence (P03952 391-638 limits assumed): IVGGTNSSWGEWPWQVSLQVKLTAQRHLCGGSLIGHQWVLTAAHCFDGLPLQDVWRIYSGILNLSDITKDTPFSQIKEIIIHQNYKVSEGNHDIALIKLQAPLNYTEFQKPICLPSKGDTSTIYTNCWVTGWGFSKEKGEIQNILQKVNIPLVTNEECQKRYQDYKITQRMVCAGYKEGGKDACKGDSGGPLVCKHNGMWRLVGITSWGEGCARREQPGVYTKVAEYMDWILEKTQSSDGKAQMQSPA
human plasma kallikrein, sequence (P03952 20-390 partner limits assumed): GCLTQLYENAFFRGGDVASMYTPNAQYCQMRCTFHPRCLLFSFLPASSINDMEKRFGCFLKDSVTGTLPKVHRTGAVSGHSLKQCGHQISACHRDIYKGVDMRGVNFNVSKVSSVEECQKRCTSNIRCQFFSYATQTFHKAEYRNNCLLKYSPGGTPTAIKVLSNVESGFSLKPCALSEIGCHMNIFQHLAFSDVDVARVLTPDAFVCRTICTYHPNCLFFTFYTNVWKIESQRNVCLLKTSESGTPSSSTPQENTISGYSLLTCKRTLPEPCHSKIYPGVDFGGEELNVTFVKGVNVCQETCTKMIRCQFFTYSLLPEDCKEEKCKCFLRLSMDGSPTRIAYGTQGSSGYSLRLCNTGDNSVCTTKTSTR

IC50 [nM] | Compound
383 | [O-][n+]1cc(F)c(-c2cnn(C(CC3CC3)c3ccc(-c4c(-n5cnnn5)ccc(Cl)c4F)c[n+]3[O-])c2)c(Cl)c1 (stereo not drawn) [Example P518]
13.4 | NC(=O)c1scc(-c2cnn(C(CC3CC3)c3ccc(-c4c(-n5cnnn5)ccc(Cl)c4F)c[n+]3[O-])c2)c1F (single isomer, unassigned) [Example P953]
220 | CCC(c1cc(OC)c(-c2cc(Cl)ccc2-n2cc(C(F)(F)F)nn2)c[n+]1[O-])n1cc(-c2ccc(C(N)=O)c(F)c2)cn1 (single isomer, unassigned) [Example P877]
5.5 | COC(=O)Nc1ccc(-c2cnn(C(Cn3ccccc3=O)c3ccc(-c4c(-n5cnnn5)ccc(Cl)c4F)c[n+]3[O-])c2)cc1 (stereo not drawn) [Example P305]
27 | NC(=O)c1ccc(-c2cnn(C(Cc3ccn(C(F)F)n3)c3ccc(-c4c(-n5cnnn5)ccc(Cl)c4F)c[n+]3[O-])c2)cc1F (single isomer, unassigned) [Example P932]
397 | [O-][n+]1cc(-c2c(-n3cnnn3)ccc(Cl)c2F)ccc1C(CC1CC1)n1cc(-c2ccnnc2)cn1 (stereo not drawn) [Example P397]
29.1 | COC(=O)Nc1ccc(-c2cnn(C(Cc3ccn(C)n3)c3ccc(-c4c(-n5cnnn5)ccc(Cl)c4F)c[n+]3[O-])c2)cc1 (racemic) [Example P327]
179 | [O-][n+]1cc(-c2c(-n3cnnn3)ccc(Cl)c2F)ccc1[C@H](Cn1cc(F)cn1)n1cc(-c2cncs2)cn1 [Example P493]
220 | [O-][n+]1cc(-c2c(-n3cnnn3)ccc(Cl)c2F)ccc1C(CC1CC1)n1cc(-c2scnc2C2CC2)cn1 (stereo not drawn) [Example P535]
59.3 | CCC(c1ccc(-c2c(-n3cnnn3)ccc(Cl)c2F)c[n+]1[O-])n1cc(-c2ccncc2)cn1 (single isomer, unassigned) [Example P212]
3.2 | COC(=O)Nc1ccc(-c2cnn(C(Cn3cccn3)c3ccc(-c4c(-n5cnnn5)ccc(Cl)c4F)c[n+]3[O-])c2)cc1 (single isomer, unassigned) [Example P272]
7.2 | [O-][n+]1cc(-c2c(-n3cnnn3)ccc(Cl)c2F)ccc1C(Cn1cc(F)c(COC(F)F)n1)n1cc(-c2ccnc(C(F)(F)F)c2)cn1 (single isomer, unassigned) [Example P570]
556 | NC(=O)C1CC1CC(c1ccc(-c2c(-n3cnnn3)ccc(Cl)c2F)c[n+]1[O-])n1cc(-c2ccc(N)nc2F)cn1 (single isomer, unassigned) [Example P337]
544 | NC(=O)c1ccc(-c2cnn(C(Cc3ccn(C(F)F)n3)c3ccc(-c4c(OC(F)F)ccc(Cl)c4F)c[n+]3[O-])c2)cc1F (single isomer, unassigned) [Example Q72]
13.9 | [O-][n+]1cc(-c2c(-n3cnnn3)ccc(Cl)c2F)ccc1C(Cn1cccn1)n1cc(-c2ccnc(C(F)F)c2)cn1 (stereo not drawn) [Example P318]
775 | NC(=O)C1CC1CC(c1ccc(-c2c(-n3cnnn3)ccc(Cl)c2F)c[n+]1[O-])n1cc(-c2cc[n+]([O-])cc2)cn1 (single isomer, unassigned) [Example P282]
17.8 | Nc1ccc(-c2cnn(C(Cn3cc(F)cn3)c3ccc(-c4c(C(F)F)ccc(Cl)c4F)c[n+]3[O-])c2)c(F)n1 (single isomer, unassigned) [Example Q25]
30.7 | NC(=O)c1ccc(-c2cnn(C(Cc3ccn(C(F)F)n3)c3ccc(-c4c(-n5cc(Cl)nn5)ccc(Cl)c4F)c[n+]3[O-])c2)cc1 (single isomer, unassigned) [Example P910]
806 | CC1(C(=O)NCC(c2ccc(-c3cc(Cl)ccc3-n3cnnn3)c[n+]2[O-])n2cc(-c3ccnc(F)c3)cn2)CC1 (stereo not drawn) [Example P347]
7.1 | O=C1CCCN1CC(c1ccc(-c2c(-n3cnnn3)ccc(Cl)c2F)c[n+]1[O-])n1cc(-c2ccnc(F)c2)cn1 (stereo not drawn) [Example P257]
176 | COCCC(c1ccc(-c2c(-n3cnnn3)ccc(Cl)c2F)c[n+]1[O-])n1cc(-n2ccnc2)cn1 (single isomer, unassigned) [Example P527]
